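Following 48 hours of exposure in 96-well plates, responses at five concentrations were used to interpolate endpoints linearly. The concentration for 50% growth inhibition is given as GI50.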 Calls of active or inactive are those of the source. Rule as the data show it: active = GI50 up to about 1.1 µM and inactive = higher.
What was measured:
Assay in all cases: DTP human tumour cell line panel, 48 h
HCT-116 = tested on: HCT-116
KM12 = tested on: KM12
CAKI-1 = tested on: CAKI-1
K562 = tested on: K562
OVCAR-4 = tested on: OVCAR-4
HL-60 = tested on: HL-60
SK-MEL-28 = tested on: SK-MEL-28
SF-295 = tested on: SF-295
ACHN = tested on: ACHN
Malme-3M = tested on: Malme-3M
EKVX = tested on: EKVX
Hs-578T = tested on: Hs-578T
SF-268 = tested on: SF-268
SNB-19 = tested on: SNB-19
UO-31 = tested on: UO-31
MCF7 = tested on: MCF7
HCT-15 = tested on: HCT-15
U-251 = tested on: U-251
A549 = tested on: A549
BT-549 = tested on: BT-549

SMILES	GI50 (HCT-116)	GI50 (KM12)	GI50 (CAKI-1)	GI50 (K562)	GI50 (OVCAR-4)	GI50 (HL-60)	GI50 (SK-MEL-28)	GI50 (SF-295)	GI50 (ACHN)	GI50 (Malme-3M)	GI50 (EKVX)	GI50 (Hs-578T)	GI50 (SF-268)	GI50 (SNB-19)	GI50 (UO-31)	GI50 (MCF7)	GI50 (HCT-15)	GI50 (U-251)	GI50 (A549)	GI50 (BT-549)
c1ccc2c(c1)Nc1nc3nonc3nc1N2	> 100 µM (inactive)	> 100 µM (inactive)	> 100 µM (inactive)	> 100 µM (inactive)	62.5 µM (inactive)	> 100 µM (inactive)	> 100 µM (inactive)	> 100 µM (inactive)	> 100 µM (inactive)	> 100 µM (inactive)	> 100 µM (inactive)	> 100 µM (inactive)	> 100 µM (inactive)	> 100 µM (inactive)	> 100 µM (inactive)	> 100 µM (inactive)	29.4 µM	> 100 µM (inactive)	> 100 µM (inactive)	> 100 µM (inactive)
Cc1ccc(NC(=O)CCc2nnc3s/c(=C\C=C\c4ccccc4)c(=O)n23)cc1	> 100 µM (inactive)	61.8 µM (inactive)	> 100 µM (inactive)	> 100 µM (inactive)	> 56.2 µM (inactive)	56 µM (inactive)	> 100 µM (inactive)	> 100 µM (inactive)	> 100 µM (inactive)	> 100 µM (inactive)	> 100 µM (inactive)	> 78 µM (inactive)	59.3 µM (inactive)	> 79.6 µM (inactive)	> 100 µM (inactive)	> 71.4 µM (inactive)	> 100 µM	53.3 µM (inactive)	> 100 µM (inactive)	> 63.8 µM (inactive)
CCOC1NC(/N=C/c2ccc(OC)cc2)=C(C#N)C1C#N (stereo not given)	63.1 µM (inactive)	64.6 µM (inactive)	> 100 µM (inactive)	31 µM (inactive)	18.4 µM (inactive)	37.5 µM (inactive)	> 100 µM (inactive)	> 100 µM (inactive)	> 100 µM (inactive)	90.8 µM (inactive)	92 µM (inactive)	47.5 µM (inactive)	97.5 µM (inactive)	87.3 µM (inactive)	> 100 µM (inactive)	> 100 µM (inactive)	99.3 µM	> 100 µM (inactive)	> 100 µM (inactive)	19.9 µM (inactive)
COC(=O)c1ccccc1C1CN=NC12Cc1c(C)c3c(c(C)c1C2=O)CCC3 (stereo not given)	37.6 µM (inactive)	> 100 µM (inactive)	> 100 µM (inactive)	> 100 µM (inactive)	> 100 µM (inactive)	> 100 µM (inactive)	> 100 µM (inactive)	33.1 µM (inactive)	> 100 µM (inactive)	> 100 µM (inactive)	> 100 µM (inactive)	> 100 µM (inactive)	> 100 µM (inactive)	> 100 µM (inactive)	> 100 µM (inactive)	> 100 µM (inactive)	> 100 µM	> 100 µM (inactive)	> 100 µM (inactive)	> 100 µM (inactive)
Cc1ccccc1OC(C)C(=O)NN1C(=O)CSC1c1ccc(Cl)cc1 (stereo not given)	31.4 µM (inactive)	42.2 µM (inactive)	56.6 µM (inactive)	23.6 µM (inactive)	36.4 µM (inactive)	21.1 µM (inactive)	73.3 µM (inactive)	25.6 µM (inactive)	33 µM (inactive)	25.7 µM (inactive)	37.9 µM (inactive)	41.8 µM (inactive)	25.4 µM (inactive)	59.2 µM (inactive)	> 100 µM (inactive)	32.1 µM (inactive)	46.6 µM	30 µM (inactive)	30.2 µM (inactive)	44.8 µM (inactive)
O=C(Cn1ccnc1[N+](=O)[O-])N(CCO)CCO	> 250 µM (inactive)	> 250 µM (inactive)	> 250 µM (inactive)	> 250 µM (inactive)	> 250 µM (inactive)	> 250 µM (inactive)	> 250 µM (inactive)	> 250 µM (inactive)	> 250 µM (inactive)	135 µM (inactive)	> 250 µM (inactive)	> 250 µM (inactive)	> 250 µM (inactive)	> 250 µM (inactive)	> 250 µM (inactive)	> 1250 µM (inactive)	> 250 µM	> 250 µM (inactive)	> 250 µM (inactive)	> 250 µM (inactive)
C[C@@H](C(=O)O)N1C(c2ccco2)=C(/C(C=O)=C\c2ccco2)C(=O)/C1=C\c1ccco1	> 100 µM (inactive)	> 100 µM (inactive)	> 100 µM (inactive)	> 100 µM (inactive)	> 100 µM (inactive)	> 100 µM (inactive)	> 100 µM (inactive)	> 100 µM (inactive)	> 100 µM (inactive)	> 100 µM (inactive)	> 100 µM (inactive)	> 100 µM (inactive)	> 100 µM (inactive)	> 100 µM (inactive)	> 100 µM (inactive)	> 100 µM (inactive)	> 100 µM	> 100 µM (inactive)	> 100 µM (inactive)	> 100 µM (inactive)
COC(=O)c1ccc(NCc2cc(O)ccc2O)cc1O	17.5 µM (inactive)	3.28 µM (inactive)	6.78 µM (inactive)	4.1 µM (inactive)	13.2 µM (inactive)	1.67 µM (inactive)	16.4 µM (inactive)	12.9 µM (inactive)	9.68 µM (inactive)	16.4 µM (inactive)	13.5 µM (inactive)	15.7 µM (inactive)	7.29 µM (inactive)	13.2 µM (inactive)	1.82 µM (inactive)	6.67 µM (inactive)	11.9 µM	11.9 µM (inactive)	12.2 µM (inactive)	3.44 µM (inactive)
O=c1oc2ccc3ccccc3c2cc1-c1nnc(-c2ccc([N+](=O)[O-])cc2)[nH]1	> 100 µM (inactive)	> 100 µM (inactive)	> 100 µM (inactive)	> 100 µM (inactive)	> 100 µM (inactive)	> 100 µM (inactive)	> 100 µM (inactive)	36.6 µM (inactive)	42.2 µM (inactive)	91.2 µM (inactive)	20.7 µM (inactive)	11.5 µM (inactive)	0.0807 µM (active)	32.8 µM (inactive)	53.1 µM (inactive)	> 100 µM (inactive)	> 100 µM	29.6 µM (inactive)	> 100 µM (inactive)	21.3 µM (inactive)
Cc1ccc(C(=O)OCC(C)C)cc1/N=N/N(C)C	> 61.9 µM (inactive)	38.8 µM (inactive)	43.8 µM (inactive)	> 100 µM (inactive)	> 71.8 µM (inactive)	34.2 µM (inactive)	> 71 µM (inactive)	27 µM (inactive)	54.8 µM (inactive)	> 100 µM (inactive)	> 100 µM (inactive)	> 100 µM (inactive)	42.9 µM (inactive)	> 76.7 µM (inactive)	41.3 µM (inactive)	30.9 µM (inactive)	48.1 µM	65.6 µM (inactive)	> 79.4 µM (inactive)	79.6 µM (inactive)
N#Cc1c(N)[nH]c(=S)c(C#N)c1-c1cccc(Cl)c1	24.4 µM (inactive)	43.3 µM (inactive)	65.8 µM (inactive)	26.2 µM (inactive)	40.7 µM (inactive)	23.2 µM (inactive)	39.6 µM (inactive)	34.9 µM (inactive)	61.1 µM (inactive)	56.1 µM (inactive)	25.6 µM (inactive)	26.7 µM (inactive)	21.8 µM (inactive)	56.2 µM (inactive)	32.8 µM (inactive)	32.3 µM (inactive)	41.1 µM	25.9 µM (inactive)	63.7 µM (inactive)	39.5 µM (inactive)
Cc1ccc(Nc2ncnc3sc(SCc4ccccc4)nc23)cc1	> 100 µM (inactive)	> 100 µM (inactive)	26 µM (inactive)	> 100 µM (inactive)	> 100 µM (inactive)	> 100 µM (inactive)	> 100 µM (inactive)	74.8 µM (inactive)	32 µM (inactive)	> 100 µM (inactive)	> 100 µM (inactive)	> 100 µM (inactive)	> 100 µM (inactive)	> 100 µM (inactive)	56 µM (inactive)	> 100 µM (inactive)	57.7 µM	> 100 µM (inactive)	88.9 µM (inactive)	> 100 µM (inactive)
COC(=O)/C=C\C(C#N)(C#N)/N=C/c1ccc(Br)s1	4.89 µM (inactive)	16.3 µM (inactive)	2.45 µM (inactive)	4.3 µM (inactive)	6.61 µM (inactive)	1.85 µM (inactive)	16.1 µM (inactive)	17.7 µM (inactive)	2.29 µM (inactive)	1.77 µM (inactive)	12.2 µM (inactive)	25.3 µM (inactive)	18.5 µM (inactive)	14.8 µM (inactive)	2.39 µM (inactive)	2.47 µM (inactive)	2.18 µM	16 µM (inactive)	21.2 µM (inactive)	4.79 µM (inactive)
Cc1ccc2c(C(=O)c3c(C)n(CCN4CCOCC4)c4ccccc34)cccc2c1	7.18 µM (inactive)	16.3 µM (inactive)	25.1 µM (inactive)	1.36 µM (inactive)	15.4 µM (inactive)	2.57 µM (inactive)	1.36 µM (inactive)	7.45 µM (inactive)	28.6 µM (inactive)	5.98 µM (inactive)	20.5 µM (inactive)	4.14 µM (inactive)	11.7 µM (inactive)	33.9 µM (inactive)	23.2 µM (inactive)	3.53 µM (inactive)	9.35 µM	12.9 µM (inactive)	24.4 µM (inactive)	14 µM (inactive)
